Measurements as given in patent EP0292291B1, “Linear and cyclic analogs of alpha-msh fragments with extraordinary potency” (UNIVERSITY PATENTS, INC., priority 1987, dated 1988).
Where two headings read alike, the source gives them in different places.

Experiments:
Frog (Rana pipiens) Skin = conditions: relative to alpha-MSH = 1.0; earlier studies; cited from earlier work
[1] = system: Lizard (Anolis carolinensis) Skin; conditions: relative to alpha-MSH = 1.0; earlier studies; cited from earlier work
[2] = system: Lizard (Anolis carolinensis) Skin; format: cell-based; conditions: for Biological Potency Lizard: relative to alpha-MSH = 1.0
Source text: Based upon the structural relationship of alpha-MSH (and its analogues and fragments) to its biological potency, using in vitro a frog skin bioassay system, the active site of alpha-MSH appears to be the common active core sequence suitably modified Ac-Met-Glu-His-Phe-Arg-Trp-Gly-NH₂. This fragment (Alpha-MSH₄₋₁₀) has been synthesized and tested for its melanocyte stimulating activity in frog skin and shown to be a weak agonist when compared to the native hormone. The amino acid exchanges in position 5(Glu) and 10(Gly) have not, previous to the making of the present invention, been investigated. […] The following table summarizes some of these studies.
The biological potencies of alpha-MSH, the linear, and the cyclic analogues were determined by their ability to stimulate melanosome dispersion in vitro in the frog and lizard bioassays. These in vitro assays provide clear cut dose response curves (between 2.5 x 10⁻¹¹ and 4 x 10⁻¹⁰ M) and can detect minimal concentration of alpha-MSH of about 10⁻¹¹ M. The assays are based upon the centrifugal dispersion of melanosomes (melanin granules) within the dendritic processes of integumental dermal melanophores leading to darkening of the skin. All the test solutions were prepared via serial dilutions from a stock solution (10⁻⁴ M). The frogs (Rans pipiens) used in these evaluations were obtained from Kons Scientific, Germantown, WI, and the lizards (Anolis carolinensis) were from the Snake Farm, La Place, LA.

Substance	Relative Potency Frog (Frog (Rana pipiens) Skin)	Relative Potency Lizard [1]	Residual Activity Lizard ([2]; cyclic analogues, p = prolonged action)	Biological Potency Lizard ([2]; cyclic analogues)	Residual Activity Lizard ([2]; linear analogues, P = prolonged action)	Biological Potency Lizard ([2]; linear analogues)
Ac-[Nle⁴]-alpha-MSH₄₋₁₁NH₂	0.002	1.0				
alpha-melanotropin [alpha-MSH]	1.0	1.0	p(-)	1.0	P(-)	1.0
